The values that follow come from US9650395B2, “Antibacterial compounds and methods for use” (PTC Therapeutics, Inc., priority 2011, dated 2017).

The MIC is the least concentration at which growth counts as inhibited.

Converted amounts (≈) assume the structure as drawn. Where two headings read alike, the source gives them in different places.

Assay [1] deals with control Gram-negative E. coli 25922 strain. Description: Antibacterial activity, microbroth dilution MIC, E. coli 25922. In kind it is cell-based, Escherichia coli. The conditions noted are these: Escherichia coli; E. coli 25922, microbroth dilution; read-out: MIC, 25922. (Dilution methods test growth across graded concentrations, often in twofold steps.)
The test system of assay [2] is super sensitive Gram-negative Escherichia coli (E. coli) BAS849. Put plainly: Antibacterial activity, microbroth dilution MIC, E. coli BAS849. As to conditions: Escherichia coli, read-out: MIC, BAS849. In kind it is cell-based.
For assay [3], the system named is Gram-positive Staphylococcus aureus (S. aureus) 29213. Put plainly: Antibacterial activity, microbroth dilution MIC, S. aureus 29213. In kind it is cell-based. The conditions noted are these: Staphylococcus aureus; S. aureus 29213, microbroth dilution; read-out: MIC, 29213.
[4] abbreviates: E. coli BAS849, microbroth dilution.

On to `CCc1cc(C(=O)O)c(=O)[nH]c1-c1ccc(N2CC3OCCN(Cc4ccccc4)C3C2)cc1.O=C(O)C(F)(F)F` (stereo not drawn) [Cpd 180, 6-[4-(4-benzylhexahydropyrrolo[3,4-b][1,4]oxazin-6(2H)-yl)phenyl]-5-ethyl-2-oxo-1,2-dihydropyridine-3-carboxylic acid trifluoroacetate], for which the minimum inhibitory concentration (MIC) lay within 12.5 to 150 µg/mL in assay [1], 1 to 3.5 µg/mL in assay [2] and 12.5 to 150 µg/mL in assay [3].
For the molecule `CCc1cc(C(=O)O)c(=O)[nH]c1-c1ccc(N2CCC(CN(Cc3ccccc3)Cc3ccccc3)C2)cc1.O=C(O)C(F)(F)F` (stereo not drawn) [Cpd 181, 6-(4-{3-[(dibenzylamino)methyl]pyrrolidin-1-yl}phenyl)-5-ethyl-2-oxo-1,2-dihydropyridine-3-carboxylic acid trifluoroacetate], the minimum inhibitory concentration (MIC) in assay [1] lay within 12.5 to 150 µg/mL; in assay [2], 3.5 to 12.5 µg/mL; in assay [3], 12.5 to 150 µg/mL.
Regarding `CCc1cc(C(=O)O)c(=O)[nH]c1-c1ccc(N2CCO[C@H]3CNC[C@H]32)cc1.O=C(O)C(F)(F)F` [Cpd 186, 5-ethyl-6-{4-[(4aR,7aS)-hexahydropyrrolo[3,4-b][1,4]oxazin-4(4aH)-yl]phenyl}-2-oxo-1,2-dihydropyridine-3-carboxylic acid trifluoroacetate], the MIC in assay [1], in assay [2] and in assay [3] was 12.5 to 150 µg/mL each time.
In the case of `CCc1cc(C(=O)O)c(=O)[nH]c1-c1ccc(N2C[C@H]3CCN(Cc4ccccc4)[C@H]3C2)cc1.O=C(O)C(F)(F)F` [Cpd 189, 6-{4-[(3aR,6aR)-1-benzylhexahydropyrrolo[3,4-b]pyrrol-5(1H)-yl]phenyl}-5-ethyl-2-oxo-1,2-dihydropyridine-3-carboxylic acid trifluoroacetate], the MIC in assay [1] is 3.5 to 12.5 µg/mL; in assay [2] it was below 1 µg/mL; in assay [3] it was 12.5 to 150 µg/mL.
Consider `C=CCN(CC=C)c1ccc(-c2[nH]c(=O)c(C(=O)O)cc2CC)cc1` [Cpd 299, 6-{4-[di(prop-2-en-1-yl)amino]phenyl}-5-ethyl-2-oxo-1,2-dihydropyridine-3-carboxylic acid], for which the results for the MIC in assay [1], in assay [2] (setting [4]) and in assay [3] were 12.5 to 150 µg/mL (≈ 36.9 to 443 µM), 1 to 3.5 µg/mL (≈ 2.96 to 10.3 µM) and 12.5 to 150 µg/mL (≈ 36.9 to 443 µM), respectively.
On to `CCc1cc(C(=O)O)c(=O)[nH]c1-c1ccc(N2C[C@@H](O)[C@@H](O)C2)cc1` [Cpd 303, 6-{4-[(3R,4S)-3,4-dihydroxypyrrolidin-1-yl]phenyl}-5-ethyl-2-oxo-1,2-dihydropyridine-3-carboxylic acid], for which the MIC in assay [1] was 12.5 to 150 µg/mL (≈ 36.3 to 436 µM); in assay [2] (setting [4]), below 1 µg/mL; in assay [3], 12.5 to 150 µg/mL (≈ 36.3 to 436 µM).
`CCc1cc(C(=O)O)c(=O)[nH]c1-c1ccc(N(C)C)s1` [Cpd 305, 6-[5-(dimethylamino)thiophen-2-yl]-5-ethyl-2-oxo-1,2-dihydropyridine-3-carboxylic acid]: the MIC in assay [1] was 12.5 to 150 µg/mL (≈ 42.8 to 513 µM); in assay [2] (setting [4]) it was below 1 µg/mL; in assay [3], 12.5 to 150 µg/mL (≈ 42.8 to 513 µM).
Take `CCc1c(-c2ccc(N3CCCC3)s2)[nH]c(=O)c(C(=O)O)c1O` [Cpd 307, 5-ethyl-4-hydroxy-2-oxo-6-[5-(pyrrolidin-1-yl)thiophen-2-yl]-1,2-dihydropyridine-3-carboxylic acid]: the results for the MIC in assay [1], in assay [2] (setting [4]) and in assay [3] were 12.5 to 150 µg/mL (≈ 37.4 to 449 µM), below 1 µg/mL and 3.5 to 12.5 µg/mL (≈ 10.5 to 37.4 µM), respectively.
The corresponding values for `CCc1cc(C(=O)O)c(=O)[nH]c1-c1ccc(N2CCCCC2)s1` [Cpd 308, 5-ethyl-2-oxo-6-[5-(piperidin-1-yl)thiophen-2-yl]-1,2-dihydropyridine-3-carboxylic acid] are 12.5 to 150 µg/mL (≈ 37.6 to 451 µM), 1 to 3.5 µg/mL (≈ 3.01 to 10.5 µM) and 12.5 to 150 µg/mL (≈ 37.6 to 451 µM).
With `CCc1c(-c2ccc(N3CCCCC3)s2)[nH]c(=O)c(C(=O)O)c1O` [Cpd 309, 5-ethyl-4-hydroxy-2-oxo-6-[5-(piperidin-1-yl)thiophen-2-yl]-1,2-dihydropyridine-3-carboxylic acid], the MIC in assay [1] was 12.5 to 150 µg/mL (≈ 35.9 to 431 µM); in assay [2] (setting [4]), below 1 µg/mL; in assay [3] it was 3.5 to 12.5 µg/mL (≈ 10 to 35.9 µM).
